# From patent US20010024809A1, “Compounds with an antioxidant activity, compositions useful as food integrators containing them and process for their preparation” (priority 2000, published 2001)
# Test: Chemiluminescent antioxidant capacity in vitro (luminol/H2O2/p-iodophenol, peroxidase)
# Assay type: biochemical
# Conditions: for Time (min.) necessary for reaching 50% of the control light emission: water control; for light emission: concentration not given; for antioxidant activity in vitro compared with Trolox: same concentration, extinguishing time of the light emission
# Protocol: The antioxidant capacity “in vitro” of FPA and FPB compounds, extracted from Ajuga reptans, and “in vivo” of the serum of rats treated with these substances, was evaluated by means of a chemiluminescent method and compared with that of an analogous hydrosoluble product of vitamin E.
# The chemiluminescent reaction of luminol was used, which is oxidized by hydrogen peroxide (H2O2), generating unstable radicals which degenerate to their basic state emitting light. This reaction is catalyzed by peroxidase enzyme. A signal potentiator is also present in the system: p-iodophenol which increases the light emission, producing in turn radicals which degenerate emitting photons.
# The presence of substances with an antioxidant activity interrupts the chain of radicalic reactions, temporarily preventing light emission. The time and extinguishing degree of the emission of photons are in relation to the antioxidant capacity and concentration of the substances being tested.
# ECL reagent (luminol/H2O2/p-iodophenol) of Amersham International (Amersham, UK).
# […] (type VI-A, 1100 U/mg) of Sigma (St. Louis, Mo., U.S.A.).
# Samples relating to FPA and FPB molecules extracted from Ajuga reptans, were prepared in aqueous solution at different concentrations (5.0, 2.0, 1.0 and 0.5 μM) and compared with solutions, at equal concentrations, of Trolox, an analogous hydrosoluble product of tocopherol. The serum of rats treated with raw extract of Ajuga reptans by intravenous administration at a dosage of 200 mg/kg were diluted 1:20 with water and compared with the serum of a non-treated rat.
# Distilled water was used as control.
# The dosage was effected in black polystyrene cylinders (Dynatech Laboratories, Chantilly, Va., U.S.A.). The chemiluminescent mixture was prepared by adding 100 μl of a dilution 1:10,000 v/v (0.11 U/ml) of a stock solution of peroxidase (1 mg/ml in a Tris-HCl 0.1 M buffer, pH 8.6) to 5 ml of ECL reagent. The various dilutions of the samples were distributed in quadruple into the cylinders (50 μl/cylinder) and 100 μl of chemiluminescent mixture were added to each. The light emission was measured immediately using a Luminograph LB980 (EG&G Berthold, Bad Wildbad, Germany) and the chemiluminescent reaction kinetics was monitored for about 60 minutes. The light emission was measured in photons/sec/pixel and the data obtained are indicated in Table 1 and the graph of FIG. 1 enclosed, compared with the control (water) and references (Trolox or serum of a non-treated rat).
Compound,Time (min.) necessary for reaching 50% of the control light emission (Concentration 0.5 μM),Time (min.) necessary for reaching 50% of the control light emission (Concentration 1 μM),Time (min.) necessary for reaching 50% of the control light emission (Concentration 2 μM),Time (min.) necessary for reaching 50% of the control light emission (Concentration 5 μM),light emission (Time 0 (min)),light emission (Time 2 (min)),light emission (Time 5 (min)),light emission (Time 7 (min)),light emission (Time 9 (min)),light emission (Time 11 (min)),light emission (Time 14 (min)),light emission (Time 17 (min)),light emission (Time 19 (min)),light emission (Time 21 (min)),light emission (Time 23 (min)),light emission (Time 26 (min)),light emission (Time 28 (min)),light emission (Time 30 (min)),light emission (Time 32 (min)),light emission (Time 34 (min)),further results
"Cc1c(C)c2c(c(C)c1O)CCC(C)(C(=O)O)O2 (racemic) [Trolox, (+/−)-6-hydroxy-2,5,7,8-tetramethylchroman-2-carbonsaeure, reference compound]",1 min,3 min,6 min,15 min,31.8 photons/sec/pixel,2.9 photons/sec/pixel,7.8 photons/sec/pixel,35.5 photons/sec/pixel,46.9 photons/sec/pixel,49.3 photons/sec/pixel,50.4 photons/sec/pixel,49.7 photons/sec/pixel,49.2 photons/sec/pixel,48.3 photons/sec/pixel,47.3 photons/sec/pixel,46.2 photons/sec/pixel,45.1 photons/sec/pixel,43.7 photons/sec/pixel,42.1 photons/sec/pixel,40.8 photons/sec/pixel,light emission (Time 37 (min)): 39.3 photons/sec/pixel; light emission (Time 41 (min)): 35.3 photons/sec/pixel; light emission (Time 44 (min)): 35 photons/sec/pixel; light emission (Time 46 (min)): 32.8 photons/sec/pixel; light emission (Time 49 (min)): 31.1 photons/sec/pixel; light emission (Time 51 (min)): 29.6 photons/sec/pixel; light emission (Time 53 (min)): 28.6 photons/sec/pixel; light emission (Time 56 (min)): 26.2 photons/sec/pixel; light emission (Time 58 (min)): 26.8 photons/sec/pixel; light emission (Time 61 (min)): 23.9 photons/sec/pixel
"C[C@@H]1O[C@@H](O[C@@H]2[C@@H](O)[C@H](OCCc3ccc(O)c(O)c3)O[C@H](CO)[C@H]2OC(=O)/C=C/c2ccc(O)c(O)c2)[C@H](O[C@@H]2O[C@H](CO)[C@H](O)[C@H](O)[C@H]2O)[C@H](O)[C@H]1O [FPA, teupolioside]",13 min,35 min,>60 min,>60 min,31.8 photons/sec/pixel,1.3 photons/sec/pixel,1.4 photons/sec/pixel,1 photons/sec/pixel,0.9 photons/sec/pixel,0.8 photons/sec/pixel,0.8 photons/sec/pixel,0.7 photons/sec/pixel,0.6 photons/sec/pixel,0.6 photons/sec/pixel,0.6 photons/sec/pixel,0.5 photons/sec/pixel,0.6 photons/sec/pixel,0.5 photons/sec/pixel,0.6 photons/sec/pixel,1.1 photons/sec/pixel,"light emission (Time 37 (min)): 0.8 photons/sec/pixel; light emission (Time 41 (min)): 0.7 photons/sec/pixel; light emission (Time 44 (min)): 0.9 photons/sec/pixel; light emission (Time 46 (min)): 0.8 photons/sec/pixel; light emission (Time 49 (min)): 0.8 photons/sec/pixel; light emission (Time 51 (min)): 0.8 photons/sec/pixel; light emission (Time 53 (min)): 0.8 photons/sec/pixel; light emission (Time 56 (min)): 1.1 photons/sec/pixel; light emission (Time 58 (min)): 0.8 photons/sec/pixel; light emission (Time 61 (min)): 1.1 photons/sec/pixel; activity relative to that of Trolox (dosage of 1 μM): ~12 times; antioxidant activity of FPA compared with FPB (in vitro): slightly higher activity with respect to the FPB compound; antioxidant activity in vitro compared with Trolox: extremely high antioxidant activity in vitro, significantly higher than that of Trolox"
COc1cc(C=CC(=O)OC2C(CO)OC(OCCc3ccc(O)c(O)c3)C(O)C2OC2OC(C)C(O)C(O)C2OC2OC(CO)C(O)C(O)C2O)ccc1O (stereo not shown) [FPB],6 min,29 min,>60 min,>60 min,31.8 photons/sec/pixel,0.3 photons/sec/pixel,0.2 photons/sec/pixel,0 photons/sec/pixel,0 photons/sec/pixel,0 photons/sec/pixel,0 photons/sec/pixel,0 photons/sec/pixel,0.1 photons/sec/pixel,0.4 photons/sec/pixel,1.1 photons/sec/pixel,1.8 photons/sec/pixel,2.6 photons/sec/pixel,3.5 photons/sec/pixel,5.1 photons/sec/pixel,7 photons/sec/pixel,"light emission (Time 37 (min)): 6.6 photons/sec/pixel; light emission (Time 41 (min)): 7.6 photons/sec/pixel; light emission (Time 44 (min)): 8.6 photons/sec/pixel; light emission (Time 46 (min)): 8.9 photons/sec/pixel; light emission (Time 49 (min)): 9.6 photons/sec/pixel; light emission (Time 51 (min)): 10.3 photons/sec/pixel; light emission (Time 53 (min)): 10.9 photons/sec/pixel; light emission (Time 56 (min)): 11.4 photons/sec/pixel; light emission (Time 58 (min)): 12.1 photons/sec/pixel; light emission (Time 61 (min)): 12.7 photons/sec/pixel; antioxidant activity in vitro compared with Trolox: extremely high antioxidant activity in vitro, significantly higher than that of Trolox"
